Results on one compound are retold here after patent US20120010229A1, “THERAPEUTIC REGIMENS FOR HEDGEHOG-ASSOCIATED CANCERS” (priority 2010, published 2012).

One experiment concerns Ptc^C/C medulloblastoma. Description: Ptc^C/C mouse medulloblastoma model: survival, symptoms, MRI tumor volume. The experiment is classed as in vivo. The source says: Transgenic mice were maintained in accordance with the NIH Guide for the Care and Use of Experimental Animals with approval from our Institutional Animal Care and Use Committee. Conditional Patched1 null mice (Ptc^C/C) were generated on a mixed background by breeding mice homozygous for the floxed Ptch1 allele (Adolphe et al., (2006) Cancer Res 66: 2081-2088) to Math1-Cre mice, as previously described (Yang et al. (2008) Cancer Cell 14: 135-145). Mice were genotyped by PCR using genomic DNA using the following primers:
Animal experiments were performed in accordance with the NIH Guide for the Care and Use of Experimental Animals with approval from our Institutional Animal Care and Use Committee. 100% penetrance of medulloblastoma in the Ptc^C/C mice was observed, with all mice displaying symptoms of tumor formation by the time of weaning. Ptc^C/C mice (age ranging from 21-36 days) were randomized to receive either IPI-926 (Infinity Pharmaceuticals) or vehicle control (5% (2-Hydroxylpropyl)-B-Cyclodextrin (HPBCD), Sigma Aldrich) administered via intraperitoneal (IP) injection.
Mice were euthanized using CO2 inhalation, brains were removed and tissue snap frozen for RNA studies or fixed in 10% buffered formalin and processed for histopathological examination. Formalin-fixed tissues were paraffin embedded, cut into 4 um sections and stained with Haematoxylin and Eosin using standard methods.
Magnetic resonance imaging (MRI) was performed using a 3 Tesla MRI system (Philips Achieva, Philips Healthcare, Andover, Mass.) and a custom mouse head coil. Serial MR scans were performed using a 35 minute coronal high-resolution T2-weighted sequence (TE=110 ms, TR=2000 ms, bandwidth=212, 2 NEX or signal averages, a matrix of 256×256 pixels in-plane, slice thickness of 320 microns and an interslice gap of 160 microns). Mice were scanned under halothane anesthesia at enrollment, after 3 weeks of treatment, and after 6 weeks of treatment. Ctx:Cy5.5 bioconjugate (Tumor Paint) was given by intravenous tail vein injection one day prior to animal sacrifice. Biophotonic images were obtained using the Xenogen Spectrum imaging system (Caliper Life Sciences) as previously described (Veiseh et al. (2007) Cancer 67: 6882-6888).
DICOM images were exported from the MRI scanner to a web-based repository (BioScribe) and then imported into ITK-SNAP (version 2.0, available on the world wide web at itksnap.org). Images were first windowed to accentuate tumor/brain contrast, easily observed on the T2-weighted scans. […] Effacement of the fourth ventricle was accompanied by lateral and third ventriculomegaly and transependymal CSF flow. Tumor and enlarged cerebellum was seen to herniate into the internal auditory canals (IAC) bilaterally. After each imaging time-point, using the manual tracing tool, tumor tissue (including the IAC components) was painted in three planes excluding frank cerebrospinal fluid or cystic regions. The resultant segmentation file was saved for later use. Three-dimensional surface-rendered reconstructions were then performed and saved in two standard projections for each tumor analyzed, with the aim of delineating a consistent view of the tumor for comparison between pre- and post-treatment scans and between treatment groups. Automated pixel counting multiplied by image pixel dimensions yielded volumetric measures for each segmentation analysis dataset. In addition to quantitative analysis, pre and post-treatment scans were compared for evaluation of secondary changes such as hydrocephalus, prominent extra-axial spaces, cystic change/necrosis in treated tumor and any evidence of hemorrhage.
Studies were designed to detect differences in event rates that approximately corresponded to a doubling of median improvement in survival of (3 weeks) with 90% power based on simulated power experiments. […]

The subject of a further experiment is Gli1. Description: Gli1 mRNA by RT-PCR in Ptc^C/C tumors. As to conditions: for suppression of Gli1 levels vs vehicle: daily 20 mg/kg/dose; for reduction in Gli1 mRNA levels: single dose. The experiment is classed as in vivo, mouse. The procedure:
Pharmacodynamic activity of IPI-926 in Ptc^C/C tumors was confirmed by analysis of Gli1 mRNA by RT-PCR. Mice were treated daily with 20 mg/kg/dose IPI-926 for 2 days, 2 weeks or 6 weeks and tumor tissue isolated and snap frozen 24 hours after the last dose. Total RNA was extracted using the Qiagen RNeasy Plus Kit and converted to cDNA using the Taqman Reverse Transcription kit (ABI). Quantitative Real Time PCR was set up using Taqman Master Mix and run on the Applied Biosystems 7300HT Real-Time PCR (384-well qPCR) System. Taqman primers for mouse Gli1 and Gapdh controls were used (ABI). Data was analyzed using SDS2.3 software (ABI). All conditions were run in triplicate and normalized to mouse Gapdh controls. Expression of IPI-926 treated (n=3 per time point) samples were normalized to vehicle control (n=3 per time point) samples.
In initial studies in the Ptc^C/C mice intracranial pressures were sufficiently high in some mice that brainstem herniation into the spinal canal and subsequent death occurred by tipping the head back for gavage feeding. Pharmacodynamic studies were conducted with intraperitoneal (IP) drug injection as well as oral gavage to see whether the IP route offered a safe and effective alternative to gavage drug administration. Both oral and IP routes induced approximately 90% reduction in Gli1 mRNA levels (FIG. 14), so IP administration was used for all subsequent studies.

For experiment [1], the system named is Smoothened bearing the A1 point mutation. Description: Shh pathway inhibition in Smo/Smo (SmoA1) mouse medulloblastoma. It is filed as in vivo. The source says:
Two mouse medulloblastoma models were considered for these studies. In the Smo/Smo model, the constitutively active Smoothened (SmoA1) transgene is driven by a fragment of the mouse NeuroD2 promoter (Hallahan et al., (2004) Cancer Research 64: 7794-7800). Over 90% of Smo/Smo mice develop subclinical, localized medulloblastomas by one month of age and they typically become symptomatic and moribund 3-5 months later (Hatton et al., (2008) Cancer Research 68: 1768-1776). In this model, Smoothened is activated by a W539L point mutation (SmoA1) in the seventh transmembrane domain (Xie et al. (1998) Nature 391: 90-92; Taipale et al., (2000) Nature 406:1005-1009). While this model is ideal for many pre-clinical medulloblastoma therapeutic trials, it was previously reported that the introduced SmoA1 point mutation reduced the affinity of cyclopamine for Smoothened in tissue culture cells (Taipale et al., (2000) Nature 406:1005-1009). Tests were performed to determine whether doses of IPI-926 that were effective in other mouse model studies were sufficient to block the Shh pathway in Smo/Smo mouse tumors. […] Therefore, a different medulloblastoma model was used.

In experiment [2] the test system is KPC mice pancreatic tumors. As to conditions: combination of IPI-926 and Gemcitabine; cited from earlier work.
Experiment [3] relates to Hedgehog pathway in stromal cells. As to conditions: after single administration; cited from earlier work.

The structures appear in SMILES notation. Bounds are passed on as bounds.

On to `CC1=C2C[C@H]3[C@@H](CC[C@@H]4C[C@H](NS(C)(=O)=O)CC[C@@]43C)[C@@H]2CC[C@@]2(C1)O[C@@H]1C[C@H](C)CN[C@H]1[C@H]2C` [IPI-926], for which the “fraction of mice with rebound in tumor growth by 6 weeks (MRI)” value in the experiment on Ptc^C/C medulloblastoma (20 mg/kg/day, after maximal size reduction at 3 weeks) is “approximately half”. Moreover, the “tumor volume by MRI” value in the experiment with Ptc^C/C medulloblastoma (after three weeks of daily administration) is “substantial tumor regression”. In addition, the “average time to death after stopping treatment” value with Ptc^C/C medulloblastoma (drug withdrawn after six weeks of daily 20 mg/kg) is listed as at most 10 days. Also, the “clinical symptoms of medulloblastoma” value with Ptc^C/C medulloblastoma (pilot study, daily IP 20 mg/kg/dose, 19 days of treatment) is given as “full resolution of clinical symptoms”. Also, the “mice still alive six weeks after starting twice-a-week therapy” value in the experiment with Ptc^C/C medulloblastoma (six weeks daily then maintenance 20 mg/kg twice per week) is 77%. The survival in the experiment on Ptc^C/C medulloblastoma (six weeks of daily IPI-926 20 mg/kg IP, vehicle 0%) is recorded as 100%. The “suppression of Gli1 levels vs vehicle” value in the experiment on Gli1 (after 2 weeks of therapy) is listed as 60%; in the experiment with Gli1 (after 6 weeks of therapy), 30%; with Gli1 (after 2 days of therapy) it was 90%. The “reduction in Gli1 mRNA levels” value with Gli1 (intraperitoneal injection) and in the experiment on Gli1 (oral gavage) was “approximately 90%” each time. The proliferation or apoptosis result in experiment [1] (Smo/Smo mouse model) is listed as “no detectable effect”. Besides, the “expression of Gli1” value in experiment [1] (Smo/Smo mouse tumors) was “unaffected”. The “intratumoral vascular density and gemcitabine concentration” value in experiment [2] is “transient increase in intratumoral vascular density and intratumoral concentration of gemcitabine”. Further, in experiment [3], the “Hedgehog pathway inhibition in stromal cells” value is “rapid and sustained Hedgehog pathway inhibition”.
